# Laboratory results: ChEMBL document CHEMBL1201862, “PubChem BioAssay data set” (2004)
# Activity calls are given as the source filed them.
# Assays:
# HEK293 [1] = test: cells; type: functional, cell-based; details: Homo sapiens
# [2] = molecular target: Nucleotide-binding oligomerization domain-containing protein 2 (Homo sapiens, UniProt Q9HC29); test: NOD2 signaling inhibitors, cell-based, luminescence, uHTS, HEK293 (AID 1566); type: functional
# HEK293 [3] = test: NOD1 signaling inhibitors, primary screen, cell-based, luminescence, uHTS (AID 1578); type: functional; details: Homo sapiens
# HEK293 [4] = test: NOD2 signaling inhibitors in MDP-stimulated cells, cell-based, uHTS, luminescence (AID 2001); type: functional; details: Homo sapiens
# HEK293 [5] = test: cells; type: functional, cell-based; details: Homo sapiens; remark: listed apart in the source
# HEK293 [6] = test: cells; type: functional, cell-based; details: Homo sapiens; remark: listed apart in the source
# BJ [7] = test: cells; type: functional, cell-based; details: Homo sapiens
# BJ [8] = test: cytotoxicity toward BJ-TERT fibroblasts, dose response, cell-based, RAS-independent, luminescence (AID 1933); type: functional; details: Homo sapiens
# [9] = cytotoxicity toward DRD oncogenic fibroblasts, dose response, cell-based, non-viral oncogenic, luminescence (AID 1934); type: functional; details: Homo sapiens
# [10] = Luminescence Cell-Based Dose Retest to Confirm Inhibitors of Cancer Stem Cells. [Related pubchem assays (depositor defined):AID2717, AID2721]; type: functional; details: Homo sapiens
# BJ [11] = test: cytotoxicity toward Ras-transformed BJeLR fibroblasts, dose response, cell-based, alamar blue fluorescence, cherrypicked samples (AID 2631); type: functional; details: Homo sapiens;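 note: confirmatory dose-response assay in RAS-dependent BJ fibroblasts engineered with TERT, LT and ST, with cytotoxicity read by fluorescence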
# BJ [12] = test: cytotoxicity toward BJ-TERT-LT-ST fibroblasts, dose response, cell-based, RAS-independent, luminescence (AID 1935); type: functional; details: Homo sapiens;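 note: BJ fibroblasts immortalized with TERT plus LT and ST oncogenes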
# Estrogen receptor beta [13] = molecular target: T1, Estrogen receptor beta (Homo sapiens, UniProt Q92731); test: ERβ–SRC-3 coactivator interaction inhibitors, confirmation, orthogonal assay, biochemical, ELISA, streptavidin-HRP readout (AID 1060)
# Estrogen receptor beta [14] = molecular target: T1, Estrogen receptor beta
# [15] = microbe, parasite or virus in culture; type: functional; details: Mycobacterium tuberculosis
# [16] = molecular target: T2, Ubiquitin-conjugating enzyme E2 N (Homo sapiens, UniProt P61088); type: functional;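 note: Dose-response confirmation in a TR-FRET assay detecting UBC13-driven polyubiquitin chain formation, inhibition measured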
# T2 sequence (P61088 whole entry): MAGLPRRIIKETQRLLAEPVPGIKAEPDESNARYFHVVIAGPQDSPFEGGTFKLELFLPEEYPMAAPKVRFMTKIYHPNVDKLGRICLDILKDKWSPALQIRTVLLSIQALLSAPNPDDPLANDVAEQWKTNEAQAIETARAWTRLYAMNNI
# [17] = ZM109 Env clade C HIV-1 fusion inhibitors, dose response, HeLa effector, CEM target cells, luciferase, cherry-pick (AID 652058); type: functional, cell-based
# [18] = inhibitors of clade B AD8 Env fusion, dose response, cell-based, cherry-pick (AID 652062); type: functional;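 note: luciferase signal from cell-cell fusion driven by HIV-1 clade B AD8 Env; potency is for inhibitors of fusion seen as a drop in luminescence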
# [19] = off-target signal loss in HeLa-CEM21 co-culture – HeLa F-luc CTL cells, cherry-picked, counter-screen for HIV-1 Env fusion inhibitor project, dose response (AID 652040); type: functional, cell-based;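 note: potency for signal decrease marking cytotoxic or nonspecific inhibition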
# [20] = inhibitors of HIV Env-driven cell fusion, dose response, cherry-pick (AID 652057); type: functional, cell-based
# Paired box protein Pax-8 = Paired box protein Pax-8 (Homo sapiens, UniProt Q06710); test: inhibitors of PAX8-driven TPO luciferase reporter, dose response, RMG-I cells, cherry-pick (AID 687027); type: functional, cell-based;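 note: luciferase reporter driven by Pax8 target thyroperoxidase promoter measured by SteadyGlo luminescence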
# [21] = cytotoxicity in OVCAR8 ovarian cancer cells, dose response, PAX8 project, cell-based, plate reader, dry powder samples (AID 743197); type: functional; details: OVCAR-8
# [22] = Luminescence Cell-Based Dose Confirmation HTS to Identify Inhibitors of Platelet Dense Granule Release. [Related pubchem assays: 1663 (Primary HTS), 1678 (Summary of Project)]; type: functional
# [23] = molecular target: Luciferin 4-monooxygenase (Photinus pyralis, UniProt P08659); test: firefly luciferase enzyme inhibitors, dose response, biochemical, luminescence (AID 1891)
# P388 = test: cells; type: functional; details: Mus musculus
# P388/ADR = test: cells; type: functional; details: Mus musculus
# H4 = test: Luminescence Cell-Based Dose Response HTS to Identify Activators of 5'UTR Stem-Loop Driven Prion Protein mRNA Translation in H4 Neuroglioblastoma Cells. [Related pubchem assays: 1829 (Project Summary), 1814 (Primary HTS)]; type: functional; details: Homo sapiens
# SN12K1 = test: cells; type: functional; details: Homo sapiens
# T1 sequence (Q92731 whole entry): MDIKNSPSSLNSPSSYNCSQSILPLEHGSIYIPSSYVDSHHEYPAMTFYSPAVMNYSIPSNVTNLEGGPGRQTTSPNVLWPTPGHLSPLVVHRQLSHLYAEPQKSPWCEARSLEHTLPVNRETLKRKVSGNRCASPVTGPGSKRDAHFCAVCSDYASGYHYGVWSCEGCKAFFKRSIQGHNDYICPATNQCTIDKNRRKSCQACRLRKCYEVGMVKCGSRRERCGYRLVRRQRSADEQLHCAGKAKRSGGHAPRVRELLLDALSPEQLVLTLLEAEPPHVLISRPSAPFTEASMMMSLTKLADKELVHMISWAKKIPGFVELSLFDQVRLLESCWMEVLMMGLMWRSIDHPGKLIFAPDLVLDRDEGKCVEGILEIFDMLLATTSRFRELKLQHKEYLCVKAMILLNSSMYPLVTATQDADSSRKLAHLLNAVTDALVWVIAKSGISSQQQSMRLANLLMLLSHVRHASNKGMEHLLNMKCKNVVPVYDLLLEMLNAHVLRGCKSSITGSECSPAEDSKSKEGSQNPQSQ
# Sequence of Nucleotide-binding oligomerization domain-containing protein 2 (Q9HC29 whole entry, the tested form may be a part): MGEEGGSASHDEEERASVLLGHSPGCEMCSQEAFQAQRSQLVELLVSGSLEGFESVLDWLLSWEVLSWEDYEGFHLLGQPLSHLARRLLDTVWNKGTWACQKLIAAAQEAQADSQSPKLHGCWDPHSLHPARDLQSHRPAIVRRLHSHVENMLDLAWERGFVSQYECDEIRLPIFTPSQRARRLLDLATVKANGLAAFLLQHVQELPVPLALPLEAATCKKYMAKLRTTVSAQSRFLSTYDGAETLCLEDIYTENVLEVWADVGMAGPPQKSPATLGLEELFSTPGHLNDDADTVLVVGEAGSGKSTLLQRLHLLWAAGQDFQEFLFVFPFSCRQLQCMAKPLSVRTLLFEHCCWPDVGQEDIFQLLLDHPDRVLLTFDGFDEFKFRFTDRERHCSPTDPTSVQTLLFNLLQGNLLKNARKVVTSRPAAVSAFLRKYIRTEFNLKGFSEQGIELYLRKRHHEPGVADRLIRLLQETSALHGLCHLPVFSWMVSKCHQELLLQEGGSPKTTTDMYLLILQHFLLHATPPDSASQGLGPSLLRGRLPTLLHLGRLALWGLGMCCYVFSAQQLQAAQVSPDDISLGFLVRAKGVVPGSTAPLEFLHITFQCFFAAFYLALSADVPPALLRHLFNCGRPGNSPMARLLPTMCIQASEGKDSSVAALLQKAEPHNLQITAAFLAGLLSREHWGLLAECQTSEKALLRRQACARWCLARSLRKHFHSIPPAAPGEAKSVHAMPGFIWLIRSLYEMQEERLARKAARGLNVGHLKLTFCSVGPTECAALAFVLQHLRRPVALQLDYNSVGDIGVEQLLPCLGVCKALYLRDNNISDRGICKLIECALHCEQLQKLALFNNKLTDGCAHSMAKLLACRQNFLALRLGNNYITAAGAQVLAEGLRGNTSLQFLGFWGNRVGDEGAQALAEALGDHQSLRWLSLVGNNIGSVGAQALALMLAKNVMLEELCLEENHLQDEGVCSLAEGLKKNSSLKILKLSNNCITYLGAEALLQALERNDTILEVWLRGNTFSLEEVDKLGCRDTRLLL
# Sequence of Paired box protein Pax-8 (Q06710 whole entry): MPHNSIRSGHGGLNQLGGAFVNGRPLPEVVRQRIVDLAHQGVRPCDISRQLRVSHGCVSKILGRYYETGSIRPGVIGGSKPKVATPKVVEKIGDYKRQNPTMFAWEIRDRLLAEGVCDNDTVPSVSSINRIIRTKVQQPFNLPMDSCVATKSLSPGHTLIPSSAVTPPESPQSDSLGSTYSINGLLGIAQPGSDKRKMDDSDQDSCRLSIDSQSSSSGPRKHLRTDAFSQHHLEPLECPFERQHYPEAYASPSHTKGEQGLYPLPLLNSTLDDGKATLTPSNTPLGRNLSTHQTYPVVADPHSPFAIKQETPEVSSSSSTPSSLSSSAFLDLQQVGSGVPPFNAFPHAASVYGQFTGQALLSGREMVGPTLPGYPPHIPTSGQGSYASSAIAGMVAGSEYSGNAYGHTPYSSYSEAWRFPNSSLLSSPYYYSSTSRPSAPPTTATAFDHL
# Sequence of Luciferin 4-monooxygenase (P08659 whole entry): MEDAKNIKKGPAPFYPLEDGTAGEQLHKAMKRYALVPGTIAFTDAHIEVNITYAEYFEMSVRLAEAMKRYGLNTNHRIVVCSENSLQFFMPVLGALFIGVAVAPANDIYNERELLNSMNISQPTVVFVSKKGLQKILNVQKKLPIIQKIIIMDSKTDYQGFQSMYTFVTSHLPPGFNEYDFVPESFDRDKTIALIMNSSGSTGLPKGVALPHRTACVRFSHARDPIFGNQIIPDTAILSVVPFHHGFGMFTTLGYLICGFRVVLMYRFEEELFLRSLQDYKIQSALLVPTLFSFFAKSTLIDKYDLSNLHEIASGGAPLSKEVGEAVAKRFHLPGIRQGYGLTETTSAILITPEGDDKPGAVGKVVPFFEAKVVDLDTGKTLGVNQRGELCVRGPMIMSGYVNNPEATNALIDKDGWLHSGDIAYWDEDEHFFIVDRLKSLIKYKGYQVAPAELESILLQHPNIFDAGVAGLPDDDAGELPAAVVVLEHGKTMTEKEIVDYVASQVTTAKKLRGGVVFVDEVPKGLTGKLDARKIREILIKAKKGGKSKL
compound,measurement,setting,value
O=C(COc1ccc(Cl)cc1)Nc1nc(-c2ccc(S(=O)(=O)N3CCOCC3)cc2)cs1,IC50,HEK293 [1],> 20 µM (inactive)
same,EC50,[2],17 µM (active)
same,EC50,HEK293 [3],10.3 µM (active)
same,IC50,HEK293 [4],4.96 µM (active)
same,IC50,HEK293 [5],3.9 µM (active)
same,IC50,HEK293 [6],> 20 µM (inactive)
Cn1cnc(Sc2[nH]cnc3ncnc2-3)c1[N+](=O)[O-],EC50,BJ [7],8.4 µM (active)
same,EC50,BJ [8],> 150 µM (not active)
same,EC50,[9],13 µM (active)
same,AC50,[10],1.42 µM (active)
same,EC50,BJ [11],> 133 µM (inactive)
same,EC50,BJ [12],> 150 µM (not active)
COc1ccc(NS(=O)(=O)c2ccc3c(c2)Cc2ccccc2-3)cn1,EC50,HEK293 [3],5.22 µM (active)
same,IC50,HEK293 [4],8.27 µM (active)
same,IC50,HEK293 [5],9.79 µM (active)
same,IC50,HEK293 [6],> 20 µM (inactive)
O=C(Nc1ccc2c(c1)OCO2)c1cccc2c1C(=O)N(Cc1cccnc1)C2,IC50,Estrogen receptor beta [13],3.13 µM (not active)
same,IC50,Estrogen receptor beta [14],> 50 µM (not active)
CCc1ccc(-c2cc(C)no2)cc1S(=O)(=O)NCCCN1CCN(c2ccccc2)CC1,EC50,HEK293 [3],6.88 µM (active)
same,IC50,HEK293 [4],4.26 µM (active)
same,IC50,HEK293 [5],4.42 µM (active)
same,IC50,HEK293 [6],7.44 µM (active)
same,CC50,[15],30.9 µM (active)
CC1CCCC(C)N1CCCNC(=O)C1CCCN(c2ncnc3c2nc2n3CCCCC2)C1 (stereo unspecified),IC50,[16],> 20 µM (inactive)
CC(C)CN(C(=O)c1ccc(S(=O)(=O)N2CCCCC2)cc1)C1CCS(=O)(=O)C1 (stereo unspecified),AC50,[17],6.21 µM (active)
C=C1CCN([C@@H](Cc2ccccc2)C(=O)NCCC(C)C)S(=O)(=O)c2ccccc21,AC50,[18],24.1 µM (active)
same,AC50,[19],6.85 µM (active)
same,AC50,[17],3.56 µM (active)
same,AC50,[20],3.91 µM (active)
C[C@@H]1CCCCO[C@@H](CN(C)C(=O)Nc2ccc(C(F)(F)F)cc2)[C@H](C)CN([C@H](C)CO)C(=O)c2cc(NS(=O)(=O)c3ccccc3)ccc2O1,AC50,Paired box protein Pax-8,6.96 µM (active)
same,AC50,[21],> 70 µM (inactive)
Cc1ccc(Cc2cncc(O)c2)cc1S(=O)(=O)O,IC50,Estrogen receptor beta [13],0.353 µM (not active)
same,IC50,Estrogen receptor beta [14],13.5 µM (active)
COc1ccc2nc(NC(=O)c3ccoc3C)sc2c1,EC50,[22],0.468 µM (active)
same,EC50,BJ [11],> 133 µM (inactive)
same,EC50,[23],0.263 µM (active)
Nc1ncn([C@H]2C[C@H](O)[C@@H](CO)O2)c(=O)n1 [DECITABINE],GI50,P388,0.051 µM (active)
same,GI50,P388/ADR,0.0959 µM (active)
same,AC50,[19],> 70 µM (inactive)
same,EC50,H4,94.9 µM (active)
same,GI50,SN12K1,> 375 µM (inactive)
